This test has as its target BTK (Homo sapiens (Human), UniProt Q06187). In words: Btk kinase assay (HTRF). The class given is biochemical. The following applies: [ATP]=80 μM, BTK=3.4 nM; read-out: BTK Inhibition. In short, it runs like this: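 BTK (3.4 nM) incubated 1 h with inhibitor, 80 μM ATP and 1 μM peptide substrate in 50 mM HEPES pH 7.0 with BSA and orthovanadate. Reaction stopped with EDTA plus Eu-antibody/XL665; HTRF 665/615 ratio read after 1 h, IC50 calculated relative to no-inhibitor and no-enzyme controls.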
A general note: Time-resolved FRET reads energy transfer from a long-lived donor to a nearby acceptor.

For 32 compounds, IC50 results are on record in patent publication US10358446B2, “Bruton's tyrosine kinase inhibitors” (Zibo Biopolar Changsheng Pharmaceutical Co. Ltd., priority 2015, dated 2019).

Chain of BTK (Q06187 whole entry, species assumed): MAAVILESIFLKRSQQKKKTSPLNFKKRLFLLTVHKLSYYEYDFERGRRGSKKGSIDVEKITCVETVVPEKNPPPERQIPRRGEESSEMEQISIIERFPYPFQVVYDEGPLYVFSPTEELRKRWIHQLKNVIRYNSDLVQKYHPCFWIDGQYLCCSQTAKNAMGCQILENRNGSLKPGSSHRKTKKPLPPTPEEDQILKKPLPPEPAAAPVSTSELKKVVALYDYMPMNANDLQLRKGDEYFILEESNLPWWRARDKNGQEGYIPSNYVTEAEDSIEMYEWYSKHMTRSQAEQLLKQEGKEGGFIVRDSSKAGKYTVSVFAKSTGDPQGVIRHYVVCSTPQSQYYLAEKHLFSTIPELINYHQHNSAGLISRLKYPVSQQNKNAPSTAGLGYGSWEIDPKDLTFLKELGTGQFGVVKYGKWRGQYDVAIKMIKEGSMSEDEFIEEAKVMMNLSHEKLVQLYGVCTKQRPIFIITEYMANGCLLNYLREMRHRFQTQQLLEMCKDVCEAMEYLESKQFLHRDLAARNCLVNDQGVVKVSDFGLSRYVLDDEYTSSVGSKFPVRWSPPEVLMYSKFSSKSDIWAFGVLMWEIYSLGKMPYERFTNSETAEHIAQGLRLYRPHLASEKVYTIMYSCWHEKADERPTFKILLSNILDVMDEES

With `C=CC(=O)Nc1cccc(-n2c(=O)n(-c3ccc(Oc4ccc(OC)c(C)c4)cc3)c3cnccc32)c1` [Example 163, N-(3-(3-(4-(4-methoxy-3-methylphenoxy)phenyl)-2-oxo-2,3-dihydro-1H-imidazo[4,5-c]pyridin-1-yl)phenyl)acrylamide], the IC50 is 100 to 1000 nM.

As to `C=CC(=O)N1CCCC1Cn1c(=O)n(-c2ccc(Oc3ccccc3)cc2)c2cnccc21` (centres unmarked) [Example 21, 1-((1-acryloylpyrrolidin-2-yl)methyl)-3-(4-phenoxyphenyl)-1H-imidazo[4,5-c]pyridin-2(3H)-one], the IC50 was in the range of 10 to 100 nM.

For `C=CC(=O)N1CC[C@@H](n2c(=O)n(-c3cccc(-c4ccccc4C)c3)c3cnccc32)C1` [Example 273, (R)-1-(1-acryloylpyrrolidin-3-yl)-3-(2′-methyl-[1,1′-biphenyl]-3-yl)-1H-imidazo[4,5-c]pyridin-2(3H)-one], the IC50 was in the range of 100 to 1000 nM.

Take `C=CC(=O)Nc1cccc(-n2c(=O)n(-c3ccc(OCc4ccc(F)cc4F)cc3)c3cnccc32)c1` [Example 248, N-(3-(3-(4-((2,4-difluorobenzyl)oxy)phenyl)-2-oxo-2,3-dihydro-1H-imidazo[4,5-c]pyridin-1-yl)phenyl)acrylamide]: the IC50 is 100 to 1000 nM.

`C=CC(=O)N1CC[C@@H](n2c(=O)n(-c3ccc(OCc4cccc(C(F)(F)F)c4)cc3)c3cnccc32)C1` [Example 211, (R)-1-(1-acryloylpyrrolidin-3-yl)-3-(4-((3-(trifluoromethyl)benzyl)oxy)phenyl)-1H-imidazo[4,5-c]pyridin-2(3H)-one]: the IC50 fell in the range of 100 to 1000 nM.

Regarding `C=CC(=O)Nc1cccc(-n2c(=O)n(-c3ccc(OCc4c(F)cccc4F)c(F)c3)c3cnccc32)c1` [Example 227, N-(3-(3-(4-((2,6-difluorobenzyl)oxy)-3-fluorophenyl)-2-oxo-2,3-dihydro-1H-imidazo[4,5-c]pyridin-1-yl)phenyl)acrylamide], the IC50 was in the range of 100 to 1000 nM.

`C=CC(=O)N1CCC[C@@H](n2c(=O)n(-c3ccc(Oc4cccc(OC)c4Cl)cc3)c3cnccc32)C1` [Example 185, (R)-1-(1-acryloylpiperidin-3-yl)-3-(4-(2-chloro-3-methoxyphenoxy)phenyl)-1H-imidazo[4,5-c]pyridin-2(3H)-one]: the IC50 was ≤ 10 nM.

For `C=CC(=O)Nc1cccc(-n2c(=O)n(-c3ccc(Oc4cccc(Cl)c4)c(F)c3)c3cnccc32)c1` [Example 50], the IC50 lay within 100 to 1000 nM.

For the compound `C=CC(=O)Nc1cccc(-n2c(=O)n(-c3ccc(OCc4ccc(C(F)(F)F)cc4)cc3)c3cnccc32)c1` [Example 242, N-(3-(2-oxo-3-(4-((4-(trifluoromethyl)benzyl)oxy)phenyl)-2,3-dihydro-1H-imidazo[4,5-c]pyridin-1-yl)phenyl)acrylamide], the IC50 fell in the range of 100 to 1000 nM.

Turning to `C=CC(=O)Nc1cccc(-n2c(=O)n(-c3ccc(Oc4ccccc4)c(F)c3)c3cnccc32)c1` [Example 93, N-(3-(3-(3-fluoro-4-phenoxyphenyl)-2-oxo-2,3-dihydro-1H-imidazo[4,5-c]pyridin-1-yl)phenyl)acrylamide], the IC50 is ≤ 10 nM.

In the case of `C=CC(=O)Nc1cccc(-n2c(=O)n(-c3ccc(Oc4ccc(OC)cc4)cc3)c3cnccc32)c1` [Example 80, N-(3-(3-(4-(4-methoxyphenoxy)phenyl)-2-oxo-2,3-dihydro-1H-imidazo[4,5-c]pyridin-1-yl)phenyl)acrylamide], the IC50 is 100 to 1000 nM.

Regarding `C=CC(=O)N1CC[C@@H](n2c(=O)n(-c3ccc(OCc4ccc(F)cc4F)c(Cl)c3)c3cnccc32)C1` [Example 202, (R)-1-(1-acryloylpyrrolidin-3-yl)-3-(3-chloro-4-((2,4-difluorobenzyl)oxy)phenyl)-1H-imidazo[4,5-c]pyridin-2(3H)-one], the IC50 is 100 to 1000 nM.

As to `C=CC(=O)N1CCC[C@@H](n2c(=O)n(-c3ccc(Oc4cccc(C)c4C)cc3)c3cnccc32)C1` [Example 58, (R)-1-(1-acryloylpiperidin-3-yl)-3-(4-(2,3-dimethylphenoxy)phenyl)-1H-imidazo[4,5-c]pyridin-2(3H)-one], the IC50 was 10 to 100 nM.

As to `C=CC(=O)N1CCC[C@@H](n2c(=O)n(-c3ccc(Oc4ccccc4)c(F)c3)c3cnccc32)C1` [Example 12, (R)-1-(1-acryloylpiperidin-3-yl)-3-(3-fluoro-4-phenoxyphenyl)-1H-imidazo[4,5-c]pyridin-2(3H)-one], the IC50 lay in the range of 10 to 100 nM.

For `C=CC(=O)N1CCCC1Cn1c(=O)n(-c2ccc(Oc3ccccc3)cc2)c2cnccc21` (centres unmarked) [Example 178, 1-(1-Acryloyl-pyrrolidin-2-ylmethyl)-3-(4-phenoxy-phenyl)-1,3-dihydro-imidazo [4,5-c]pyridin-2-one], the IC50 lay in the range of 10 to 100 nM.

For `C=CC(=O)Nc1cccc(-n2c(=O)n(-c3ccc(Oc4cccc(OC(C)C)c4)cc3)c3cnccc32)c1` [Example 85, N-(3-(3-(4-(3-isopropoxyphenoxy)phenyl)-2-oxo-2,3-dihydro-1H-imidazo[4,5-c]pyridin-1-yl)phenyl)acrylamide], the IC50 fell in the range of 10 to 100 nM.

For the compound `O=C(/C=C/c1ccccc1)N1CC[C@@H](n2c(=O)n(-c3ccc(Oc4ccccc4)c(Cl)c3)c3cnccc32)C1` [Example 22, (R,E)-3-(3-chloro-4-phenoxyphenyl)-1-(1-cinnamoylpyrrolidin-3-yl)-1H-imidazo[4,5-c]pyridin-2(3H)-one], the IC50 is ≥ 10000 nM.

For `C=CC(=O)Nc1cccc(-n2c(=O)n(-c3ccc(C(=O)Nc4cccc(C)c4)cc3)c3cnccc32)c1` [Example 255, 4-(1-(3-acrylamidophenyl)-2-oxo-1H-imidazo[4,5-c]pyridin-3(2H)-yl)-N-(m-tolyl)benzamide], the IC50 was 1000 to 10000 nM.

As to `C=CC(=O)N1CC[C@@H](n2c(=O)n(-c3ccc(OCc4ccc(Cl)cc4F)cc3)c3cnccc32)C1` [Example 244, (R)-1-(1-acryloylpyrrolidin-3-yl)-3-(4-((4-chloro-2-fluorobenzyl)oxy)phenyl)-1H-imidazo[4,5-c]pyridin-2(3H)-one], the IC50 was 100 to 1000 nM.

Regarding `C=CC(=O)Nc1cccc(-n2c(=O)n(-c3ccc(OCc4c(F)cccc4F)cc3)c3cnccc32)c1` [Example 226, N-(3-(3-(4-((2,6-difluorobenzyl)oxy)phenyl)-2-oxo-2,3-dihydro-1H-imidazo[4,5-c]pyridin-1-yl)phenyl)acrylamide], the IC50 was in the range of 100 to 1000 nM.

Regarding `C=CC(=O)N1CCC[C@@H](n2c(=O)n(-c3ccc(Oc4ccccc4)c(Cl)c3)c3cnccc32)C1` [Example 107, (R)-1-(1-acryloylpiperidin-3-yl)-3-(3-chloro-4-phenoxyphenyl)-1H-imidazo[4,5-c]pyridin-2(3H)-one], the IC50 lay within 10 to 100 nM.

On to `C=CC(=O)N1CC[C@@H](n2c(=O)n(-c3ccc(OCc4ccc(Cl)c(Cl)c4)cc3)c3cnccc32)C1` [Example 198, (R)-1-(1-acryloylpyrrolidin-3-yl)-3-(4-((3,4-dichlorobenzyl)oxy)phenyl)-1H-imidazo[4,5-c]pyridin-2(3H)-one], for which the IC50 lay in the range of 100 to 1000 nM.

For `C=CC(=O)N1CC[C@@H](n2c(=O)n(-c3ccc(Oc4cccc(C(C)C)c4)cc3)c3cnccc32)C1` [Example 153, (R)-1-(1-acryloylpyrrolidin-3-yl)-3-(4-(3-isopropylphenoxy)phenyl)-1H-imidazo[4,5-c]pyridin-2(3H)-one], the IC50 lay within 10 to 100 nM.

Turning to `C=CC(=O)Nc1cccc(-n2c(=O)n(-c3ccc(OCc4cc(F)ccc4F)cc3)c3cnccc32)c1` [Example 220, N-(3-(3-(4-((2,5-difluorobenzyl)oxy)phenyl)-2-oxo-2,3-dihydro-1H-imidazo[4,5-c]pyridin-1-yl)phenyl)acrylamide], the IC50 lay within 100 to 1000 nM.

For the compound `C=CC(=O)N1CC[C@@H](n2c(=O)n(-c3ccc(Oc4ccc(Cl)c(Cl)c4)cc3)c3cnccc32)C1` [Example 37, (R)-1-(1-acryloylpyrrolidin-3-yl)-3-(4-(3,4-dichlorophenoxy)phenyl)-1H-imidazo[4,5-c]pyridin-2(3H)-one], the IC50 is 100 to 1000 nM.

In the case of `C=CC(=O)N1CC[C@@H](n2c(=O)n(-c3ccc(Oc4cccc(C5CC5)c4)cc3)c3cnccc32)C1` [Example 10, (R)-1-(1-acryloylpyrrolidin-3-yl)-3-(4-(3-cyclopropylphenoxy)phenyl)-1H-imidazo[4,5-c]pyridin-2(3H)-one], the IC50 was in the range of 100 to 1000 nM.

Turning to `C=CC(=O)N1CC[C@@H](n2c(=O)n(-c3ccc(Oc4cccc(OCC)c4)cc3)c3cnccc32)C1` [Example 24, (R)-1-(1-acryloylpyrrolidin-3-yl)-3-(4-(3-ethoxyphenoxy)phenyl)-1H-imidazo[4,5-c]pyridin-2(3H)-one], the IC50 lay in the range of 10 to 100 nM.

As for `C=CC(=O)N1CC[C@@H](n2c(=O)n(-c3ccc(OCc4ccccc4C(F)(F)F)cc3)c3cnccc32)C1` [Example 210, (R)-1-(1-acryloylpyrrolidin-3-yl)-3-(4-((2-(trifluoromethyl)benzyl)oxy)phenyl)-1H-imidazo[4,5-c]pyridine-2(3H)-one], the IC50 was 10 to 100 nM.

Regarding `C=CC(=O)N1CC[C@@H](n2c(=O)n(-c3ccc(OCc4ccccc4)cc3)c3cnccc32)C1` [Example 246], the IC50 was 100 to 1000 nM.

In the case of `C=CS(=O)(=O)N1CC[C@@H](n2c(=O)n(-c3ccc(Oc4ccccc4)c(Cl)c3)c3cnccc32)C1` [Example 23, (R)-3-(3-chloro-4-phenoxyphenyl)-1-(1-(vinylsulfonyl)pyrrolidin-3-yl)-1H-imidazo[4,5-c]pyridin-2(3H)-one], the IC50 was in the range of 10 to 100 nM.

As to `C=CC(=O)Nc1cccc(-n2c(=O)n(-c3ccc(C(=O)NCc4ccc(F)cc4)cc3)c3cnccc32)c1` [Example 249, 4-(1-(3-acrylamidophenyl)-2-oxo-1H-imidazo[4,5-c]pyridin-3(2H)-yl)-N-(4-fluorobenzyl)benzamide], the IC50 is 10 to 100 nM.

In the case of `C=CC(=O)N1CC[C@@H](n2c(=O)n(-c3ccc(Oc4cccc(OC(C)C)c4)cc3)c3cnccc32)C1` [Example 25, (R)-1-(1-acryloylpyrrolidin-3-yl)-3-(4-(3-isopropoxyphenoxy)phenyl)-1H-imidazo[4,5-c]pyridin-2(3H)-one], the IC50 is ≤ 10 nM.
